Laboratory results: article PMC11933534, “Favipiravir induces HuNoV viral mutagenesis and infectivity loss with clinical improvement in immunocompromised patients” (Clinical Immunology (Orlando, Fla.), 2024)
Read-outs that look alike come from different tables or passages of the source.

How the values were obtained:
[1] = set-up: method as in PMID 30485769; details: P2; favipiravir 1200 mg 12-hourly; caused treatment interruptions; cited from earlier work
[2] = test system: HuNoV; test: Stool HuNoV viral load (RT-qPCR Ct) in treated patients; format: in vivo, human
[3] = test system: HuNoV; test: Clinical response of immunocompromised patients with chronic HuNoV infection; format: in vivo, human
Method: The Drugs and Therapeutics Committees at Great Ormond Street Hospital for Children, Great North Children's Hospital and Royal Free London NHS Trust approved treatment with favipiravir +/− nitazoxanide in four immunocompromised patients with life-threatening/severe chronic HuNoV infections. After obtaining informed consent, microbiological and pharmacological monitoring was performed. Informed consent was also obtained for microbiological monitoring in 2 untreated patients with HuNoV infections. Residual diagnostic viral samples were released for whole-genome sequencing through the UCL/UCLH Pathogen Biobank National Research Ethics Service Committee London Fulham (reference: [12]/LO/1089). For P1 specifically, residual stool samples were released for in vivo infectivity evaluation in the zebrafish model with research ethics approval from London Bloomsbury Research Ethics Committee (reference: 07/Q0508/43). This allows the use of pseudonymised residual diagnostic samples for research. An additional stool sample positive for HuNoV from the existing collection of samples of the University Hospital of Leuven (Belgium) was used (reference: G-2021–4376). Informed consent was obtained from the patient. […]

[4] = test system: HuNoV GII.4 Sydney[P16]; test: Antiviral treatment of HuNoV-infected zebrafish larvae (viral RNA by RT-qPCR); format: in vivo; details: for Reduction in viral load with post-treatment sample: favipiravir 25 ng, inoculum P1 SS F carrying RdRp A44S change
Method: (§1) First, compounds were dissolved in 100% DMSO (spectroscopy grade). To determine the correct dose for pericardial injections in zebrafish larvae of all compounds (i.e. favipiravir, tizoxanide and their 1:1 combination), a weight-dependent conversion was applied. For this purpose, the optimized and increased clinical dose of 400 mg favipiravir TDS and 200 mg tizoxanide BD was used. To ensure the weight-converted dose was not toxic for zebrafish larvae of 3 days post fertilization, a toxicity analysis was performed. […] The following parameters were investigated: touch response, morphology, posture, oedema, signs of necrosis, swim bladder and heartbeat.
(§2) Zebrafish larvae were anesthetized and positioned as described previously, in short: zebrafish larvae of 3 days post fertilization were anesthetized and transferred to an agarose mold to position them on their dorsal side with the yolk facing upward. In every experiment, the injection needle was calibrated to ensure the precision of the injection volume. Microinjection was performed using an M3301R Manual Micromanipulator (WPI, Friedberg, Germany) and a FemtoJet 4i pressure microinjector (Eppendorf, Hamburg, Germany). Compound-treated zebrafish larvae received a 1 nL (1.5 nL in case of the combination treatment) injection of compound in the pericardial cavity, while negative control zebrafish were injected with an equal volume of DMSO. Subsequently, the zebrafish larvae received an injection of 3 nL virus in the yolk. After both injections, zebrafish larvae were transferred to 6-well plates with Danieau's solution and further maintained in an incubator with a 14/10 h light/dark cycle at 32 °C.
(§3) Zebrafish larvae were homogenized (Precellys 24, Bertin Technologies, Montigny-le-Bretonneux, France), the homogenates were cleared by centrifugation (5 min, 9000 g), and RNA was extracted using the Direct-zol RNA kit (Zymo Research, Irvine, CA, USA), according to the manufacturer's protocol. RNA levels were quantified with a one-step RT-qPCR (iTaq Universal Probes One-Step Kit, Bio-Rad, Hercules, CA, USA) as previously described.

[5] = test system: mouse norovirus; set-up: method as in PMID 22809499; details: 95%CI: 35–43 μg/mL; cited from earlier work
[6] = test system: HuNoV; test: Infectivity of P1 stool-sample HuNoV in zebrafish larvae (fold increase, ID50); format: in vivo
Method: Human stool samples, positive for HuNoV, were obtained from the Great Ormond Street Hospital for Children (United Kingdom) and the University Hospital of Leuven (Belgium). An aliquot of 100 mg of each stool sample was re-suspended in 1 mL of sterile PBS, thoroughly vortexed, and centrifuged (5 min, 1000 g), supernatant was harvested and stored at −80 °C. This virus suspension was used for RNA extractions, quantification by RT-qPCR and injections in the zebrafish larvae. HuNoV RNA was extracted from 100 μL of PBS suspension using the Direct-zol RNA kit (Zymo Research, Irvine, CA, USA), according to the manufacturer's protocol. The original concentrations of the stool samples were as followed: SS A: 5.52*10^9 copies/g stool, SS B: 1.34*10^11 copies/g stool, SS C: 2.07*10^11 copies/g stool, SS D: 3.07*10^10 copies/g stool, SS E: 1.23*10^12 copies/g stool, SS F: 3.12*10^11 copies/g stool and GII.4 Sydney[P16] (in house collection KU Leuven): 1.46*10^10 copies/g stool.
as §2, §3
To start, all stool samples were brought to the same theoretical inoculum (± 1000 viral RNA copies/3 nL injection volume) by dilution with PBS. To compare the viral infectivity between different stool samples, multiple methods were used; A) calculating the fold increase by taking the input based on the viral load of P1's stool samples and the amount of viral RNA copies/zebrafish at the peak of replication into account which are both quantified by RT-qPCR and B) determining the 50% infectious dose for each stool sample based on a well-established method adapted to the zebrafish replication model by diluting the collected stool samples to evaluate at which dilution the infectivity is lost.

[7] = test system: HuNoV; set-up: method as in PMID 30485769; details: P2 (CVID); favipiravir 1200 mg 12-hourly, three courses; cited from earlier work
[8] = test system: HuNoV; set-up: method as in PMID 30485769; details: P2; favipiravir 1200 mg 12-hourly, three courses; cited from earlier work
[9] = test system: zebrafish larvae; test: Toxicity analysis in zebrafish larvae; format: in vivo; details: 25 ng favipiravir or 4 ng tizoxanide, drug administered alone
Method: as §1

For `NC(=O)c1nc(F)c[nH]c1=O` [favipiravir], the Adverse event [1] is listed as “recurring transaminitis of undetermined aetiology”, the “Stool HuNoV viral load” value ([2]; P3, favipiravir 12-hourly 1200 mg, before treatment max Ct 21.2) is listed as 30.9 Ct and the “Stool HuNoV viral load” value ([2]; P4, favipiravir 400 mg 8-hourly + nitazoxanide 200 mg 12-hourly, max Ct, before treatment max Ct 17.9) is listed as 27.8 Ct. The Clinical response ([3]; P3 (CID), favipiravir monotherapy) was “Weight gain, reduced stool output, improved enteral feeding”, the “Patient weight after treatment” value ([3]; P3, second course up to 12-hourly 800 mg, four months, from 28.9 kg) was 33.3 kg and the “Reduction in viral RNA copies/zebrafish” value ([4]; favipiravir 25 ng single pericardial injection, inoculum P1 pre-treatment SS A, day 3 pi (peak), p = 0.0263) was 1.6 log10. For the same molecule, the “Reduction in viral load with post-treatment sample” value [4] was “no reduction in viral load”, the “Reduction in viral load with post-treatment sample” value ([4]; listed as Favipiravir) was “cannot reduce” and the “Reduction of HuNoV replication” value ([4]; monotherapy favipiravir 25 ng or tizoxanide 4 ng, in-house GII.4 Sydney[P16] stool sample, peak 2 dpi, p = 0.0006 and 0.001) was over 1 log10. For the same molecule, the “EC50 for mouse norovirus in vitro” value [5] was “EC50 Favipiravir for mouse norovirus (39 μg/mL [35])”, the “Fold increase in viral RNA, 0 to 2 dpi” value ([6]; P1 SS B, 2 days into favipiravir treatment (after 10 days ribavirin), ~1000 genome copies, pre-treatment SS A 321 ± 177) was 143 ± 76 fold and the “50% infectious dose (ID50)” value ([6]; P1 SS B, 2 days into treatment, pre-treatment SS A 289) was 697 viral RNA copies/zebrafish. The “Fold increase in viral RNA, 0 to 2 dpi” value ([6]; P1 SS C, 125 days into favipiravir treatment, ~1000 genome copies, pre-treatment SS A 321 ± 177) was 53 ± 31 fold, the “50% infectious dose (ID50)” value ([6]; P1 SS C, 125 days into treatment, pre-treatment SS A 289) was 461 viral RNA copies/zebrafish and the “50% infectious dose (ID50)” value ([6]; P1 SS D, after a 2-month treatment gap) was 338 viral RNA copies/zebrafish. The “Fold increase in viral RNA, 0 to 2 dpi” value ([6]; P1 SS D, after a treatment gap of 2 months, ~1000 genome copies) was 177 ± 55 fold, the “Fold increase in viral RNA, 0 to 2 dpi” value ([6]; P1 SS E, 6 months after re-introduction at higher favipiravir dose) was 75 ± 21 fold and the “50% infectious dose (ID50)” value ([6]; P1 SS E, after treatment reintroduction (higher dose)) was 880 viral RNA copies/zebrafish. The “Fold increase in viral RNA, 0 to 2 dpi” value ([6]; P1 SS F, 7 months after re-introduction at higher favipiravir dose) was 47 ± 16 fold, the “50% infectious dose (ID50)” value ([6]; P1 SS F, after treatment reintroduction (higher dose)) was 1110 viral RNA copies/zebrafish and the “Increase in the 50% infectious dose in HuNoV shed during treatment” value ([6]; P1 stool samples over one year of treatment) was about 1 log10. For the same molecule, the Clinical response [7] was “Weight gain, reduced stool output, decreased adjunctive loperamide”, the “Change in stool HuNoV viral load” value [8] was “modest decrease in HuNoV VLs, but not viral clearance” and the “Toxicity in the zebrafish larval model” value [9] was “did not show toxicity”.
